# pIC50: −log10 of the molar value. Where two headings read alike, the source gives them in different places.
# Legend:
# pNL4-3 HIV-1 virus [1] = experiment: microbe, parasite or virus in culture; format: cell-based; settings: virus to cell infection, pNL4-3, X4 tropism; for pIC50: read-out: IC50
# Description: Fully infectious HIV-1 is produced from proviral reference DNA reflecting a reference wild-type HIV-1 virus (pNL4-3, Genbank #AF003888).
# (§1) Format for virus to cell infection: Briefly, the assay was performed in 6 well tissue culture plates and included 50'000 HIV-producing cells (HeLa) in a final volume of 2 mL DMEM medium (Gibco, Parsley, UK). After 2 days of incubation, […] of viral supernatant was added to 5'000 pre-incubated HIV-reporter cells (HeLaCCR5) in a final volume of […] of RPMI medium (Gibco, Parsley, UK) including […] of substances to be tested.
# (§2) In this experiment only pNL4-3 reference HIV strain was used.
# Graphs in FIG. 10 show the inhibition curves as percent of virus inhibition as a function of increasing concentrations of each compound. The table in FIG. 10 reports the calculated parameters of HIV inhibition (IC50, IC90 and Hill's coefficient).
# pNL-Bal HIV-1 virus [2] = settings: for Rf (resistance factor): pNL-Bal reference strain, ratio to itself
# Description: (§3) Two compounds were evaluated for their activity as inhibitor of HIV replication on three different lab strains using the deCIPhR cellular format.
# (§4) Compound stocks were prepared as 1.5 mM solution in 100% DMSO and vials were agitated for two hours at 50° C. Stock solutions were kept at −20° C., light protected as aliquots. Working dilutions (1/3 log) were prepared extemporaneously by serial dilutions in H2O/DMSO (95/5). Ten μL of working dilutions were then pipetted and directly tested for anti-HIV activity in the 200 μL final volume of the deCIPhR cellular assay format, yielding final concentrations of 7'500, 3'481, 1'616, 750, 348, 162, 75, 35, 16, 8 and 3 nM.
# (§5) The DNA sequence coding for Vpu, Tat, Rev, Env, and Nef from the CCR5-tropic clone BAL2 (HIVBAL2A, Genbank accession number #M68894) was introduced by PCR-cloning into the reference proviral strain pNL4-3 (Genbank accession number #AF324493), where it replaced the corresponding region. Presence of insert was ascertained by restriction digest analysis and double sequencing on ABI 310 prism sequencer. After transfection, pNL-BaL produces a full-length infectious virus often used as reference for a B-Subtype, CCR5-tropic strain (Donaldson et al., 1994).
# (§6) Principle of Dual-Enhancement of Cell-Infection to Phenotype Resistance (deCIPhR™): deCIPhR test is a proprietary assay system developed by InPheno AG (FIG. 7):
# (§7) Fully infectious HIV-1 is produced from a proviral reference DNA reflecting a reference HIV-1 virus. Recombinants carrying an exchanged specific-sequence (e.g. mutants resistant to existing HIV-1 inhibitors or sequences issued from clinical situations) can easily be engineered by PCR-based amplification/ligation (see paragraph 3). The unique test format allows 3 to 5 rounds of viral replication and permits a dynamic parallel read-out of viral fitness and resistance to the respective drugs under investigation. Colorimetric readout (405 nm) is translated in percent viral inhibition through normalization with positive and negative control wells included in each 96 well-plate.
# (§8) Each mutated proviral DNA is transfected into a human epitheloid cell line using lipofectant agent (lipofectamine 2000, Invitrogen) following the manufacturer's instructions. Cell to cell spread and replication of recombinant viruses is allowed for but also restricted to a period of four days in the absence or presence of specific drugs by co-culture with a second cell line expressing both chemokine receptors CXCR4 and CCR5. Finally, culture supernatants are transferred to a third reporter cell line also expressing both kinds of co-receptors. The infection is incubated for another 48 hours period, after which cells are fixed (formaldehyde/glutaraldehyde) prior to incubation with a chromogenic substrate for beta-galactosidase, typically ortho-nitrophenyl-galactopyranoside.
# (§9) A range of twelve concentrations of each compound was tested in triplicates in the deCIPhR format on each mutated provirus.
# (§10) The two compounds under investigation were tested along with reference compounds T20 and EFV on three wild-type viruses (pNL4-3, green curves; pNL-Bal, blue curves and pNL-AD87, orange curves) using the deCIPhR cellular system (see paragraph 4.1).
# [3] = test system: "G-I-A" mutant (pNL-Bal, gp41 V38A); settings: for pIC50: "G-I-A" mutant, R5; for Rf (resistance factor: IC50 on mutant virus / IC50 on reference strain): "G-I-A" vs pNL-Bal; for Resistance factor (IC50 mut/IC50 wt) IC50 fold increase: Table II, "G-I-A" vs wild-type pNL-Bal
# [4] = test system: "D-I-A" mutant (pNL-Bal, gp41 G36D, V38A); settings: for pIC50: "D-I-A" mutant, R5; for Rf (resistance factor: IC50 on mutant virus / IC50 on reference strain): "D-I-A" vs pNL-Bal; for Resistance factor (IC50 mut/IC50 wt) IC50 fold increase: Table II, "D-I-A" vs wild-type pNL-Bal
# pNL-Bal HIV-1 virus [5] = experiment: microbe, parasite or virus in culture; settings: Human immunodeficiency virus 1, BAL
# Description: as §3, §4, §5, §6, §7, §8, §9, §10
# pNL-AD87 HIV-1 virus [6] = experiment: microbe, parasite or virus in culture; settings: Human immunodeficiency virus 1
# Description: as §3, §4
# (§11) The DNA sequence coding for Vpu, Tat, Rev, Env, and Nef from the CCR5-tropic clone AD87 (HIV strain AD8, Genbank accession number #AF004394) was introduced by PCR-cloning into the reference proviral strain pNL4-3 (Genbank accession number #AF324493), where it replaced the corresponding region. Presence of insert was ascertained by restriction digest analysis and double sequencing on ABI 310 prism sequencer. After transfection, pNL-AD87 produces a full-length infectious virus often used as reference for a B-Subtype, CCR5-tropic strain (Theodore et al., 1996).
# as §6
# (§12) Fully infectious HIV-1 is produced from a proviral reference DNA reflecting a reference HIV-1 virus. Recombinants carrying an exchanged specific-sequence (e.g. mutants resistant to existing HIV-1 inhibitors or sequences issued from clinical situations) can easily be engineered by PCR-based amplification/ligation (see paragraph 3). The unique test format allows 3 to 5 rounds of viral replication and permits a dynamic parallel read-out of viral fitness and resistance to the respective drugs under investigation. Colorimetric readout (405 nm) is translated in percent viral inhibition through normalization with positive and negative control wells included in each 96 well-plate. […]
# pNL4-3 HIV-1 virus [7] = experiment: microbe, parasite or virus in culture; settings: Human immunodeficiency virus 1
# Description: as §4
# (§13) Fully infectious HIV-1 is produced from a proviral reference DNA reflecting a reference HIV-1 virus. […] The unique test format allows 3 to 5 rounds of viral replication and permits a dynamic parallel read-out of viral fitness and resistance to the respective drugs under investigation. Colorimetric readout (405 nm) is translated in percent viral inhibition through normalization with positive and negative control wells included in each 96 well-plate.
# as §8, §9
# binding of gp120 to α4β7 = experiment: gp120 binding to α4β7 in cell extracts (previous studies); set-up: species or system human; settings: read-out: activity of inhibition of the binding of gp120 to α4β7
# Description: FIG. 37: Activity of a panel of inhibitors in blocking the binding of gp120 to a4b7. (a) The left chart depicts data collected in example 3 using ELISA assay. (b) The right chart depicts data collected by screening cell extracts. Bold letters used for a compound denote active compounds. The remaining compounds are weak or non-inhibitors All assays were repeated six times (three times for each anti-gp120 mAb used in the case of the ELISA data) and an average was presented. All values were obtained within 5% deviation.
# This method was advanced into an ELISA format and applied to screen the number of compounds provided within the research period.
# Outcome: Repandusinic acid A inhibited the binding of gp120 to α4β7 with an activity of 1.2±0.1 μM using the described an ELISA assay.
# The five-step assay developed was applied to screen the panel of compounds provided. […] The experiments were run in triplicate using two antibodies against gp120. The data was compiled and plotted (FIG. 37a) and compared against the results with less accuracy obtained in our prior studies (FIG. 37b). Only modest changes were observed between the in vitro studies conducted herein (FIG. 37a) and those conducted on cell lysates (FIG. 37b). Results obtained are described in detail in the figure legend to FIG. 37 herein above.
# [8] = test system: HIV-reporter cells (HeLaCCR5); experiment: cytotoxicity microscopically observed in virus-to-cell infection format; format: cell-based; settings: highest concentration
# Description: as §1, §2
# HIV = experiment: profiling of anti-HIV activity, summary over lab strains; format: cell-based, HIV-1; settings: summary of Example 2 results
# deCIPhR cellular system = settings: at tested concentrations
# Description: as §8, §10
# pNL-AD87 HIV-1 virus [9] = settings: cell to cell infection, pNL-AD87, R5 tropism
# Description: as §3, §4, §11, §6, §12
# pNL4-3 HIV-1 virus [10] = settings: cell to cell infection, pNL4-3, X4 tropism
# Description: as §4, §13, §8, §9
Molecule,Rf (resistance factor) (pNL-Bal HIV-1 virus [2]),pIC50 [3],Rf (resistance factor: IC50 on mutant virus / IC50 on reference strain) [3],Resistance factor (IC50 mut/IC50 wt) IC50 fold increase [3],pIC50 [4],Rf (resistance factor: IC50 on mutant virus / IC50 on reference strain) [4],Resistance factor (IC50 mut/IC50 wt) IC50 fold increase [4],pIC50 (pNL-AD87 HIV-1 virus [6]),pIC50 (pNL4-3 HIV-1 virus [7]),other results
"O=C1Nc2ccc(Cl)cc2[C@@](C#CC2CC2)(C(F)(F)F)O1 [EFV, Efavirenz]",1,8.77,0.3,0.3,8.52,0.6,0.5,9.00,8.05,pIC50 (pNL4-3 HIV-1 virus [1]; Human immunodeficiency virus 1): 8.70; pIC50 (pNL-Bal HIV-1 virus [5]; read-out: IC50 (concentration inhibiting 50% of viral replication)): 8.30
O=C(O)C=C(C(=O)OC1C2COC(=O)c3cc(O)c(O)c(O)c3-c3c(cc(O)c(O)c3O)C(=O)OC1C(O)C(OC(=O)c1cc(O)c(O)c(O)c1)O2)C1c2c(cc(O)c(O)c2O)C(=O)OC1C(=O)O (stereo not shown) [Repandusinic acid A],,,,,,,,,,pIC50 (binding of gp120 to α4β7): 5.04
O=C(CNC1CCCCC1)Nc1cccc(C(=O)Nc2cccc(C(F)(F)F)c2)c1 [T0520-5895],1,5.12,0.5,0.5,< 4.52,>40,>40,6.60,< 4.52,"IC50 (pNL4-3 HIV-1 virus [1]): inactive; signs of cytotoxicity [8]: signs of cytotoxicity; anti-HIV activity (HIV): significant anti-HIV activity; signs of cytotoxicity (deCIPhR cellular system): without signs of cytotoxicity; pIC50 (pNL-Bal HIV-1 virus [5]; read-out: IC50, extrapolated value): 4.82"
enfuvirtide,1,6.90,12.7,13,5.64,227,227,,,"pIC50 (pNL4-3 HIV-1 virus [1]): 7.32; pIC50 (pNL-Bal HIV-1 virus [2]; read-out: IC50 (concentration inhibiting 50% of viral replication), cell to cell infection, pNL-Bal, R5 tropism): 8.00; pIC50 (pNL-AD87 HIV-1 virus [9]): 7.20; pIC50 (pNL4-3 HIV-1 virus [10]): 7.12"

# From patent US9422527B2, “Drug target site within gp120 of HIV” (priority 2011, dated 2016)
